Where two headings read alike, the source gives them in different places. Numbered stars: 1 amine (or outer) side, 2 acyl side, 3 side chain; on linkers, the order of the positions; unused ones are H or OH. Bridge positions count the residues as written; N and C are the ends. Square brackets hold non-standard residues; d marks the D form. Peptide text beside a SMILES is read from it. Phe(4-CF3) = N[C@@H](Cc1ccc(C(F)(F)F)cc1)C(=O)O; Bip = N[C@@H](Cc1ccc(-c2ccccc2)cc1)C(=O)O; dPhe(4-NH2) = Nc1ccc(C[C@@H](N)C(=O)O)cc1; Phe(4-NH2) = Nc1ccc(C[C@H](N)C(=O)O)cc1; d(hPhe) = N[C@H](CCc1ccccc1)C(=O)O; d2Thi = N[C@H](Cc1cccs1)C(=O)O; Suc = O=C(CCC(=O)[*:2])[*:1]
What was measured:
[1] = system: TNF-α (degradation of IkB in HeLa cells or A431 cells); assay: Human cell-based assay: inhibition of TNF-α induced degradation of IkB; details: for inhibition at 5 µM: read-out: Inhibition at Various Compound Concentrations, 5 μM; for inhibition at 10 µM: read-out: Inhibition at Various Compound Concentrations, 10 μM
[2] = system: rat paw edema model; assay: Rat paw edema model (carrageenan), anti-inflammatory activity; assay type: in vivo, Sprague-Dawley (SD) rats
Protocol: Compounds 3, 4, 10 and 202 were tested in a rat paw edema model to determine anti-inflammatory activity. Seven groups (one for Vehicle A [15 mL PEG400, 3 mL Graves Grain alcohol (190 proof), 1.8 mL dimethylacetamide and 10.2 mL deionized water] alone as a negative control, one for Vehicle B [0.1M NaHCO3] alone as a negative control, one for each of the four test compounds dissolved in Vehicle A, and one for indomethacin dissolved in Vehicle B as a positive control), each group containing six Sprague-Dawley (SD) rats (180-200 g) randomized by weight. Initial paw volumes were measured by placing the right hind limb of the rat up to the top of the hock in a beaker of water sitting on a scale that had been tared to zero and recording the readout.
Rats were pre-treated with either i) one of the test compounds, or ii) a positive or negative control. Vehicle A alone and test compound dissolved in Vehicle A (Compound 3-1.0 mg/kg; Compound 4-0.4 mg/kg; Compound 10-0.5 mg/kg; Compound 202-0.3 mg/kg) were administered by intravenous injection. Vehicle B alone and indomethacin (5 mg/kg in 0.1M NaHCO3) was administered by intraperitoneal injection. Thirty minutes after this pretreatment, rats were anesthetized and injected with 0.1 mL of carrageenan (10 mg/mL in water) in the subplantar region of the right hind foot using a ½ inch 26 gauge needle attached to a 1 cc syringe.
At 2, 4 and 6 hours post-carrageenan injection, the right hind foot of each rat was measured for paw volume as described above.
We next investigated the effect of varying intravenous doses of Compound 202 (0.05, 0.10, 0.30, and 1.00 mg/kg) in the same model using the same protocol (6 rats per group). […] We also investigated the affect of oral dosing (10 mg/kg) of Compound 202 in the same model. For oral dosing, a 2.5 mg/mL suspension of Compound 202 was prepared in Vehicle A. Rats were orally administered 4 mL/kg of that suspension.

[3] = biological target: T1, TNFα / TNFα receptor (TNFα R1/Fc) (Homo sapiens, UniProt P01375); assay: Inhibition of binding of TNFα to the TNFα receptor (plate ELISA competition); details: Table 2
T1 construct: purchased R&D Systems
How it was run: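 Plates were coated with TNFα at 15 nM. Test compound and 8.33 nM receptor-Fc (PBST, 2% DMSO) were first mixed in solution for 30 min at room temperature, then transferred to the plates for another 30 min. Competition was read by absorbance at 450 nm after HRP anti-human IgG Fc detection with TMB.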

[4] = 5 μM compound, HeLa or A431 cells
[5] = 10 μM compound, HeLa or A431 cells
[6] = read-out: Activity (IC50, inhibition of TNFα binding to TNFα R1/Fc)
[7] = Table 4, 1 mg/kg IV, 2 h post-carrageenan
[8] = Table 4, 1 mg/kg IV, 4 h post-carrageenan
[9] = Table 4, 1 mg/kg IV, 6 h post-carrageenan
[10] = Table 7, 1 mg/kg IV, 2 h post-carrageenan
[11] = Table 7, 1 mg/kg IV, 4 h post-carrageenan
[12] = Table 7, 1 mg/kg IV, 6 h post-carrageenan

T1 sequence (P01375 77-233 limits assumed, species assumed): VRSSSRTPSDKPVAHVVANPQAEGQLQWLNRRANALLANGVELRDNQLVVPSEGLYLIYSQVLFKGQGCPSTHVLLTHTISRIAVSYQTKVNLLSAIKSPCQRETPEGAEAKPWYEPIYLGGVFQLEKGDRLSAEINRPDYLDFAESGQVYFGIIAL

Row | SMILES | inhibition at 5 µM [1, 4] [%] | inhibition at 10 µM [1, 5] [%] | IC50 [3, 6] [µM] | Change in Paw Volume [2, 10] [mL] | Change in Paw Volume [2, 11] [mL] | Change in Paw Volume [2, 12] [mL] | also measured
1 | O=C1CCC(=O)N[C@H](CCc2ccccc2)C(=O)N[C@@H](Cc2ccc(C(F)(F)F)cc2)C(=O)N[C@H](Cc2ccccc2)C(=O)N[C@@H](C(=O)O)Cc2ccc(cc2)N1 [Compound 3] ([d(hPhe)][Phe(4-CF3)][dF][dPhe(4-NH2)]-OH; linker N-4 via Suc) | < 10 | < 10 | 10 to 30 |  |  |  | Change in Paw Volume ([2]; Table 3, 1.0 mg/kg IV, 2 h post-carrageenan): 0.69 ± 0.14 mL; Change in Paw Volume ([2]; Table 3, 1.0 mg/kg IV, 4 h post-carrageenan): 1.16 ± 0.32 mL; Change in Paw Volume ([2]; Table 3, 1.0 mg/kg IV, 6 h post-carrageenan): 1.22 ± 0.31 mL
2 | O=C(O)[C@@H]1Cc2ccc(cc2)NC(=O)[C@H](O)[C@@H](O)C(=O)N[C@H](Cc2cccs2)C(=O)N[C@@H](Cc2ccc(-c3ccccc3)cc2)C(=O)N[C@H](Cc2ccccc2)C(=O)N1 [Compound 4] |  | < 10 | 10 to 30 |  |  |  | Change in Paw Volume ([2]; Table 3, 0.4 mg/kg IV, 2 h post-carrageenan): 0.72 ± 0.13 mL; Change in Paw Volume ([2]; Table 3, 0.4 mg/kg IV, 4 h post-carrageenan): 1.16 ± 0.16 mL; Change in Paw Volume ([2]; Table 3, 0.4 mg/kg IV, 6 h post-carrageenan): 1.16 ± 0.25 mL
3 | O=C1CCC(=O)N[C@H](Cc2cccs2)C(=O)N[C@@H](Cc2ccc(-c3ccccc3)cc2)C(=O)N[C@H](Cc2ccccc2)C(=O)N[C@H](C(=O)N[C@@H](Cc2ccccc2)C(=O)O)Cc2ccc(cc2)N1 [Compound 10] ([d2Thi][Bip][dF][Phe(4-NH2)]F-OH; linker N-4 via Suc) |  |  | 10 to 30 |  |  |  | inhibition at 25 µM ([1]; 25 μM compound, HeLa or A431 cells, read-out: Inhibition at Various Compound Concentrations, 25 μM): > 80%; Change in Paw Volume ([2]; Table 3, 0.5 mg/kg IV, 2 h post-carrageenan): 0.54 ± 0.23 mL; Change in Paw Volume ([2]; Table 3, 0.5 mg/kg IV, 4 h post-carrageenan): 1.11 ± 0.31 mL; Change in Paw Volume ([2]; Table 3, 0.5 mg/kg IV, 6 h post-carrageenan): 1.23 ± 0.28 mL
4 | O=C1CCC(=O)N[C@H](CCc2ccccc2)C(=O)N[C@@H](Cc2ccc(C(F)(F)F)cc2)C(=O)N[C@H](Cc2ccccc2)C(=O)N[C@H](C(=O)N[C@@H](Cc2ccccc2)C(=O)O)Cc2ccc(cc2)N1 [Compound 11] ([d(hPhe)][Phe(4-CF3)][dF][Phe(4-NH2)]F-OH; linker N-4 via Suc) | 10 to 50 | 50 to 80 | < 10 |  |  |  | Change in Paw Volume [2, 7]: 1.37 ± 0.16 mL; Change in Paw Volume [2, 8]: 1.43 ± 0.13 mL; Change in Paw Volume [2, 9]: 1.45 ± 0.08 mL
5 | O=C1CCC(=O)N[C@H](Cc2cccs2)C(=O)N[C@@H](Cc2ccc(-c3ccccc3)cc2)C(=O)N[C@H](Cc2ccccc2)C(=O)N[C@H](C(=O)N[C@H](Cc2ccccc2)C(=O)O)Cc2ccc(cc2)N1 [Compound 33] ([d2Thi][Bip][dF][Phe(4-NH2)][dF]-OH; linker N-4 via Suc) | 10 to 50 | 50 to 80 | < 10 |  |  |  | Change in Paw Volume [2, 7]: 1.10 ± 0.22 mL; Change in Paw Volume [2, 8]: 1.49 ± 0.11 mL; Change in Paw Volume [2, 9]: 1.46 ± 0.07 mL
6 | O=C1COc2ccc(cc2)C[C@@H](C(=O)N[C@@H](Cc2ccccc2)C(=O)O)NC(=O)[C@@H](CCc2ccccc2)NC(=O)[C@H](Cc2ccc(-c3ccccc3)cc2)NC(=O)[C@@H](Cc2cccs2)N1 [Compound 156] |  |  |  | 1.49 ± 0.24 | 1.51 ± 0.12 | 1.81 ± 0.16 | inhibition at 5 µM [1]: 50 to 80%; inhibition at 10 µM [1]: > 80%; IC50 ([3]; Activity (IC50, inhibition of TNFα binding to TNFα R1/Fc)): < 10 µM
7 | O=C(O)[C@H](Cc1ccccc1)NC(=O)[C@@H]1Cc2ccc(cc2)NC(=O)[C@H](O)[C@@H](O)C(=O)N[C@H](Cc2cccs2)C(=O)N[C@@H](Cc2ccc(-c3ccccc3)cc2)C(=O)N[C@H](Cc2ccccc2)C(=O)N1 [Compound 174] | < 10 | 10 to 50 | < 10 | 1.22 ± 0.08 | 1.53 ± 0.13 | 1.70 ± 0.22 | 
8 | O=C(O)[C@@H]1Cc2ccc(cc2)NC(=O)[C@H](O)[C@@H](O)C(=O)N[C@@H](Cc2cccs2)C(=O)N[C@@H](Cc2ccc(-c3ccccc3)cc2)C(=O)N[C@@H](Cc2ccccc2)C(=O)N1 [Compound 273] | 10 to 50 | < 10 | > 100 | 1.13 ± 0.09 | 1.52 ± 0.12 | 1.59 ± 0.16 | 
